Key:
Format in all cases: in vivo
Myzus persicae = Myzus persicae test, activity boost through ammonium/phosphonium salts and penetration promoters (Example 11)
Protocol: For application with ammonium salts or phosphonium salts and penetration promoters (rapeseed oil methyl ester 500 EW) these are in each case added in a concentration of 1000 ppm to the spray liquor.
(§1) After the desired time the destruction in % is determined.

Aphis gossypii = Aphis gossypii test (Example 12); settings: for Destruction (%) after 6 d: no additive
Protocol: For application with ammonium salts or phosphonium salts and penetration promoters (rapeseed oil methyl ester 500 EW) these are in each case added in a concentration of 1000 ppm a.i. to the spray liquor.
as §1

Maize - Arsenal = experiment: Greenhouse container trials with maize, pre-emergence, with and without safener; settings: 28 days after application
From the text: Seeds of monocotyledonous and dicotyledonous weed plants and crop plants are placed in sandy loam soil in wood fibre pots or in plastic pots and are covered with earth. The test compounds, formulated as wettable powders (WP) or liquids (EC), are sprayed onto the soil surface in various dosages, with a water application rate of 300 l/ha (converted). The pots are then placed in a greenhouse under good growth conditions, and also, during the vegetation period, are placed outdoors, outside of the greenhouse, so that the plants are able to germinate and develop. 3 to 4 weeks after the trial plants have been treated, the effect of the products is rated visually in comparison to untreated controls (herbicidal effect in percent: 100% effect=plants have died, 0% effect=like control plants).
(§2) If the testing is also to look at whether safeners can improve the tolerance of the crop plants for test substances, the following options are used for the application of the safener: • seeds of the crop plants are dressed with the safener substance prior to sowing (the amount of safener is stated as a percentage, based on the seed weight) • pots containing the crop plants are sprayed with the safener, with a defined application rate per hectare, prior to application of the test substances • the safener is applied together with the test substance in the form of a tank mix (the amount of safener is reported in g/ha or as a proportion relative to the herbicide).
(§3) By comparing the effect of test substances on crop plants which have been treated with safener and without safener it is possible to assess the effect of the safener substance.

Spring barley = experiment: Greenhouse container trials with cereals, post-emergence, with and without safener
Protocol: (§4) Seeds of monocotyledonous and dicotyledonous weed plants and crop plants are placed in sandy loam soil in wood fibre pots or in plastic pots and are covered with earth and cultivated in a greenhouse and also, during the vegetation period, outdoors, outside of the greenhouse, under good growth conditions. 2 to 3 weeks after sowing, the trial plants are treated at the one- to three-leaf stage. The test compounds, formulated as wettable powders (WP) or liquids (EC), are sprayed onto the plants and the soil surface in various dosages, with a water application rate of 300 l/ha (converted) and with addition of wetting agent (0.2% to 0.3%). […]
as §2, with “weight) • crop plants” for “weight) • pots containing the crop plants”, “test substances (typically 1 day before the test substances are applied) • the” for “test substances • the”
as §3

Spring wheat = experiment: as above; settings: 10 days after application
Protocol: as §4
as §2, with “weight) • crop plants” for “weight) • pots containing the crop plants”, “test substances (typically 1 day before the test substances are applied) • the” for “test substances • the”
as §3

[1] = 20 ppm, no additive, bell pepper plants

## COCC1(C)NC(=O)C(c2cc(-c3ccc(Cl)cc3)ccc2C)=C1O (stereo not shown) [I-a-1]
Myzus persicae; 4 ppm, +AS 1000 ppm
  Destruction (%) after 6 d: 0%
Myzus persicae; 4 ppm, +AS +RME 1000 ppm each
  Destruction (%) after 6 d: 75%
Myzus persicae; 4 ppm, +RME 1000 pm
  Destruction (%) after 6 d: 35%
Myzus persicae; 4 ppm, no additive, bell pepper plants
  Destruction (%) after 6 d: 0%
Myzus persicae; 20 ppm, +AS 1000 ppm
  Destruction (%) after 6 d: 65%
Myzus persicae; 20 ppm, +AS +RME 1000 ppm each
  Destruction (%) after 6 d: 99%
Myzus persicae; 20 ppm, +RME 1000 pm
  Destruction (%) after 6 d: 98%
Myzus persicae; [1]
  Destruction (%) after 6 d: 0%
Aphis gossypii; 20 ppm active compound
  Destruction (%) after 6 d +AS 1000 ppm: 20%
  Destruction (%) after 6 d +AS +RME 1000 ppm each: 85%
  Destruction (%) after 6 d +RME 1000 pm: 5%
  Destruction (%) after 6 d: 5%
Aphis gossypii; 100 ppm active compound
  Destruction (%) after 6 d +AS 1000 ppm: 90%
  Destruction (%) after 6 d +AS +RME 1000 ppm each: 90%
  Destruction (%) after 6 d +RME 1000 pm: 90%
  Destruction (%) after 6 d: 60%

## COCC1(C)NC(=O)C(c2cc(-c3ccc(F)cc3)ccc2C)=C1O (stereo not shown) [I-a-12]
Myzus persicae; 20 ppm, +AS 1000 ppm
  Destruction (%) after 6 d: 0%
Myzus persicae; 20 ppm, +AS +RME 1000 ppm each
  Destruction (%) after 6 d: 99%
Myzus persicae; 20 ppm, +RME 1000 pm
  Destruction (%) after 6 d: 45%
Myzus persicae; [1]
  Destruction (%) after 6 d: 10%
Myzus persicae; 100 ppm, +AS 1000 ppm
  Destruction (%) after 6 d: 98%
Myzus persicae; 100 ppm, +AS +RME 1000 ppm each
  Destruction (%) after 6 d: 99%
Myzus persicae; 100 ppm, +RME 1000 pm
  Destruction (%) after 6 d: 99%
Myzus persicae; 100 ppm, no additive, bell pepper plants
  Destruction (%) after 6 d: 85%

## CCc1cc(-c2ccc(Cl)cc2)cc(CC)c1C1=C(OC(=O)C(C)C)C(C)(COC)NC1=O (stereo not shown) [I-b-2]
Maize - Arsenal; 25 g a.i./ha
  Maize - Arsenal observed (%): 40%
Maize - Arsenal; 50 g a.i./ha
  Maize - Arsenal observed (%): 50%

## COCC1(C)NC(=O)C(c2c(C)ccc(-c3ccc(Cl)cc3)c2C)=C1O (stereo not shown) [I-a-7]
Aphis gossypii; 20 ppm active compound
  Destruction (%) after 6 d +AS 1000 ppm: 10%
  Destruction (%) after 6 d +AS +RME 1000 ppm each: 90%
  Destruction (%) after 6 d +RME 1000 pm: 70%
  Destruction (%) after 6 d: 5%

## CCOC(=O)OC1=C(c2c(C)cc(-c3ccc(Cl)cc3)cc2CC)C(=O)NC1(C)COC (stereo not shown) [I-c-1]
Maize - Arsenal; 50 g a.i./ha
  Maize - Arsenal observed (%): 55%

## CCc1cc(-c2ccc(C)cc2)cc(C)c1C1=C(OC(=O)C(C)C)C(C)(COC)NC1=O (stereo not shown) [I-b-5]
Spring barley; 25 g a.i./ha, 28 days after application
  Spring barley observed (%): 10%
Spring barley; 50 g a.i./ha, 10 days after application
  Spring barley observed (%): 50%
Spring barley; 100 g a.i./ha, 10 days after application
  Spring barley observed (%): 65%
Spring barley; 100 g a.i./ha, 28 days after application
  Spring barley observed (%): 30%
Spring wheat; 50 g a.i./ha
  Spring wheat observed (%): 10%
Spring wheat; 100 g a.i./ha
  Spring wheat observed (%): 15%

— patent publication US8173697B2, “Alkoxyalkyl-substituted cyclic keto-enols” (Bayer CropScience AG, priority 2006, dated 2012)
